Results published in patent publication US6660255B1, “Inhibition of gene transcription by polyamide DNA-binding ligands” (California Institute of Technology, priority 1997, dated 2003).
pKd: −log10 of the molar value. “Also recorded” adds a separate entry of the source.

Legend:
[1] = tested on: IE86 binding to the CMV MIEP; experiment: DNase I footprinting, IE86 binding to the crs element; design: species or system human cytomegalovirus; settings: approximately 250 nM IE86
Source text: These compounds together with purified recombinant IE86 protein were used in DNase I footprint experiments with a singly end-labeled restriction fragment derived from the CMV major immediate early promoter. […] A singly-end labeled restriction fragment was used in DNase I footprinting reactions. […] Lanes 1 and 18 represent a G+A sequencing ladder. […] The location of the TATA box and the start of transcription are indicated.

[2] = tested on: 5′-WGCWGCW-3′ sequences adjacent to the HIV-1 TATA element; experiment: DNase I footprint titration at sites flanking the HIV-1 TATA element; format: binding
Procedure: The recognition sites for polyamide HIV-1 are of the form 5′-WGCWGCW-3″ (where W=A or T).
White, S., Baird, E. E. & Dervan, P. B. describes the pairing rules for recognition in the minor groove of DNA by pyrrole-imidazole polyamides. […] Labeled DNA was incubated with polyamide (45 minutes) and digested with DNase I under single-hit conditions.
Regions of polyamide protection were determined by analysis of the digestion products on a 6% denaturing polyacrylamide sequencing gel. Storage phosphorimage analysis of the data was used to obtain dissociation constants for the binding reactions (using Kodak Storage Phosphor Screens and a Molecular Dynamics SF PhosphorImager). Recombinant human TBP (rhTBP) was obtained from Promega and was used in footprinting and gel mobility shift experiments as recommended. The reaction mixtures also contained 100 ng of poly dG-poly dC per 10 μL gel shift reaction or 50 μL footprinting reaction. For gel mobility shift assays, 6% polyacrylamide gels (20:1, acrylamide to bisacrylamide) contained 44 mM Tris-borate, pH 8.3, 1 mM EDTA, […] and 0.02% (v/v) NP-40. The same buffer was used for electrophoresis of 1 mm thick gels at 15 volts/cm for 2 hours at 4° C.

[3] = tested on: HIV-1 enhancer/promoter restriction fragment; experiment: DNase footprint titration on HIV-1 enhancer/promoter fragment, other sites; format: binding; settings: mismatch polyamide, 1-60 nM
Source text: White, S., Baird, E. E. & Dervan, P. B. describes the pairing rules for recognition in the minor groove of DNA by pyrrole-imidazole polyamides. Chem. & Biol. 4, 569-578 (1997); Swalley, S. E., Baird, E. E. & Dervan, P. B. describe the sequence specificity of the β/β pairing Chem Eur. J. 3, 1600 (1997). […] For DNase I footprinting a 400-bp restriction fragment containing the HIV-1 enhancer and promoter regions was isolated from pHIV LTR-CAT plasmid DNA (obtained from Dr. K. A. Jones of The Salk Institute, La Jolla, Calif.) (P. L. Sheridan et al., describe the sequence composition of the plasmid pHIV LTR-CAT Genes Dev. 9, 2090 (1995)). Labeled DNA was incubated with polyamide (45 minutes) and digested with DNase I under single-hit conditions.
Regions of polyamide protection were determined by analysis of the digestion products on a 6% denaturing polyacrylamide sequencing gel. Storage phosphorimage analysis of the data was used to obtain dissociation constants for the binding reactions (using Kodak Storage Phosphor Screens and a Molecular Dynamics SF PhosphorImager). Recombinant human TBP (rhTBP) was obtained from Promega and was used in footprinting and gel mobility shift experiments as recommended. The reaction mixtures also contained 100 ng of poly dG-poly dC per 10 μL gel shift reaction or 50 μL footprinting reaction. […]

[4] = tested on: HIV-1 promoter (LEF-1-activated transcription); experiment: HIV-1 transcription in vitro, H9 cell extract supplemented with HeLa nuclear extract; format: biochemical; settings: mismatch polyamide
Source text: Based on the-results described above, it was expected that polyamide inhibition of LEF-1 binding would inhibit LEF-1-dependent transcription in an appropriate in vitro assay system. […] The H9 cell extract was supplemented with the HeLa cell-derived nuclear extract in order to obtain high levels of transcription. The H9 cell extract stimulates HIV-1 transcription ˜2.5 to 3-fold over the level of transcription observed with the HeLa extract alone and immunodepletion of LEF-1 protein from the H9 extract abolishes this activated transcription.
The effects of polyamides 1 and 2 on HIV-1 transcription were tested in an in vitro transcription assay with a HeLa cell nuclear extract (FIG. 21A). The effects of the polyamides on basal transcription by RNA polymerase II was monitored with a nuclear extract prepared from HeLa cells (J. D. Dignam, P. L. Martin, B. S. Shastry, R. G. Roeder, Describe eukaryotic gene transcription with purified components Meth. Enzymol. 101, 582 (1983)). […] Whole cell extracts of H9 cells in log phase growth were prepared by hypotonic lysis and contained 20 mg/ml protein, as determined by the Bradford reaction. […]
The effects of polyamides 3 and 4 on HIV-1 transcription in an in vitro system consisting of a cell-free extract prepared from cultured human lymphoid H9 cells supplemented with HeLa cell extract were determined. […]

CN(C)CCCNC(=O)CCNC(=O)c1cc(NC(=O)c2nc(NC(=O)CCNC(=O)c3cc(NC(=O)c4nc(NC(=O)CCCNC(=O)c5cc(NC(=O)c6nc(NC(=O)CCNC(=O)c7cc(NC(=O)c8nccn8C)cn7C)cn6C)cn5C)cn4C)cn3C)cn2C)cn1C [polyamide 4, ImPy-β-ImPy-γ-ImPy-β-ImPy-β-Dp]
interference with IE86 binding [1]: did not interfere | Ka ([2]; HIV-1 TATA box region): 2e+10 M⁻¹ | fold reduced affinity relative to the match polyamide ([2]; mismatch control polyamide): 100 fold | pKd ([2]; sites flanking the TATA element, 5′-AGCTGCA-3′ / 5′-TGCTGCA-3′, read-out: apparent/equilibrium dissociation constant (Kd)): 10.30 | binding to the HIV-1 enhancer/promoter fragment [3]: failed to detect any high affinity sites; also recorded: does not bind | inhibition of HIV-1 transcription [4]: fails to inhibit
